# Measurements taken from patent publication US20040171592A1, “Organic nitrate-based compounds for the treatment of vasculopathies” (priority 2001, published 2004).
# Marks after values point to notes of the source that are not given here.
# Key:
# gastric mucosa = assay: Damages to the gastric mucosa (lesion score) in the rats of the restenosis model; type: in vivo, Male Wistar rats; details: for Gastric damage Score: control score 2
# Experimental: (§1) The rats were divided in the indicated groups (n. 12 animals each) and subjected to pharmacological treatment as described hereunder for the 14 days following the vascular damage. The compounds, dissolved in polyethylenglycol (PEG 400) were administered by os by gastric probe according to the following scheme:
# (§2) The animals were sacrificed and the carotids removed. For each artery n. 6 sections having a thickness of 6 μm were isolated. Stomachs were removed and inspected for damages of the gastric mucosa, determining the areas of both bleeding lesions and non bleeding lesions. Said lesions were evaluated by a score according to known methods.
# [1] = system: restenosis experimentally caused by balloon angioplasty; assay: Restenosis induced in rats by balloon angioplasty (neointima/middle tunica thickness ratio); type: in vivo, Male Wistar rats; details: for Restenosis %: 14 days after vascular damage, control = 100; for formation of the neointima tunica in the vascular wall / restenosis (in words): summary of Table 1, NO-aspirin low doses, Aspirin high doses
# Experimental: Efficacy of Aspirin and of 2-acetyloxybenzoic acid (3-nitrooxymethyl)phenyl ester (Formula XI), in an Experimental Model of Restenosis Induced in Rats
# Male Wistar rats weighing 300-350 g were anaesthetized by intraperitoneal injection of ketamine (100 mg/kg) and xylazine (5 mg/kg) and subjected to angioplasty according to the procedure described by Indolfi et Al., Circulation, 1995, 92, 1230-1235, by using a little balloon catheter which was first introduced in the aortic arch through the right carotid, then swollen and then let pass three times forth and back in the duct lumen.
# as §1
# 2 groups received NO-Aspirin at the dose of 30 and 100 mg/kg, respectively,
# 2 groups received Aspirin at the dose of 16 and 54 mg/kg, respectively,
# 1 group received NO-Ketorolac at the dose of 10 mg/Kg,
# 1 group received Ketorolac at the dose of 5 mg/Kg,
# the control group received only the carrier (PEG 400, 0.2 ml/rat).
# At the end of the treatment the animals were anaesthetized as described above and the carotids were first washed by infusion, through the left ventricle, of saline buffer phosphate (PBS, pH 7,2, 100 ml) then fixed with PBS containing paraformaldehyde (4%).
# as §2
# 3 of the 6 sections of each artery were stained with hematoxylin and eosin to evidence different types of cells, the remaining 3 sections were stained first with aldehyde fuchsin and then with the Gieson solution to evidence the internal elastic lamina (IEL). The sections were photographed and the imagines were analyzed by an image analysis system (Qwin Lite, Leica, Milan).
# The thicknesses respectively of the middle and neointima tunica, and of the duct wall were measured. The results reported in Table 1 are expressed as percentage of restenosis and have been calculated as a ratio between the thickness of the neointima tunica and that of the middle tunica […] measured in the sections obtained from the groups, assuming equal to 100 the N/M ratio of the control group.
# [2] = system: SP-SHR rats (Stroke-Prone Spontaneously Hypertension Rats); assay: Mortality/survival in SP-SHR rats under chronic treatment for 16 weeks; type: in vivo; details: controls 0
# Source text: Evaluation of the Mortality in SP-SHR Rats (Stroke-Prone Spontaneously Hypertension Rats) Treated With 2-acetyloxybenzoic acid (6-nitrooxymethyl)-2-methylpyridinyl hydrochloride ester (Formula XV), (NO-ASA) and Aspirin.
# In this experiment SP-SHR rats were used which develop a severe hypertension, with a high incidence of spontaneous cerebral infarct. […] (Yamori Y. et al. Stroke 1976; 7: 46-53).
# Three groups each formed by 12 SP-SHR rats, 8 weeks old at the beginning of the experiment, received for 16 weeks together with the daily diet Aspirin (54 mg/kg) NO-ASA (30 mg/kg); the control group received only the diet.
# During the period of chronic treatment the percentage of animal survival was evaluated.
# [3] = system: oxidized LDL in the vascular wall; assay: Vascular damage in carotids: oxidized LDL in the vascular wall (MDA2 antibody immunohistochemistry); type: in vivo, SP-SHR rats; details: control = 0
# Experimental: Evaluation of the Vascular Damage in Animals Treated With NO-ASA and Aspirin
# In this experiment SP-SHR rats were used, as in the previous Example.
# Three groups, each formed by 12 SP-SHR rats, 8 weeks old at the beginning of the experiment, received respectively for 6 weeks, together with the daily diet Aspirin (54 mg/kg) NO-ASA (30 mg/kg) (two groups); the control group (third group) received only the diet.
# At the end of the treatment the animals were sacrificed by decapitation and the carotids were isolated. The ducts were opened and washed with cold sterile buffer phosphate (PBS) containing EDTA (2 mM) and maintained in cold PBS (cooled in ice bath) containing 2, [6]-di-tert-butyl-p-cresol (50 μM), aprotin (0.001%), EDTA (50 mM) and chloramphenicol (0.008%). The arteries were fixed with formalin (10%), then soaked in paraffin and then dissected. An aliquot of the obtained sections was incubated with MDA2 antibodies, which are directed against specific epitopes for oxidized LDL.
# The data were calculated by considering the number of the sections, positive at the immunohistochemical test with MDA2 antibodies, detected in the groups of the treated animals and in the control group, respectively. The results are expressed as percentage of reduction of the oxidized LDL (low density lipoprotein) presence in the vascular wall taking as 0 the LDL value measured in the control group.
# [4] = 54 mg/kg/die with the daily diet
# [5] = 30 mg/kg/die with the daily diet
smiles,measurement,setting,value
"CC(=O)Oc1ccccc1C(=O)Oc1cccc(CO[N+](=O)[O-])c1 [NO-Aspirin, 2-(acetyloxy)benzoic acid 3-(nitrooxymethyl)phenyl ester]",Gastric damage Score,gastric mucosa; Dose 166 mg/Kg,2
same,Gastric damage Score,gastric mucosa; Dose 249 mg/Kg,4
same,Restenosis %,[1]; 30 mg/Kg by os,62.5* %
same,Restenosis %,[1]; 100 mg/Kg by os,31* %
same,formation of the neointima tunica in the vascular wall / restenosis (in words),[1],already significantly reduced
"CC(=O)Oc1ccccc1C(=O)O [Aspirin, aspirin]",Gastric damage Score,gastric mucosa; Dose 50 mg/Kg,22*
same,Gastric damage Score,gastric mucosa; Dose 100 mg/Kg,42*
same,gastric toxicity / lesions to the gastric mucosa (in words),"gastric mucosa; rat, in vivo",produce lesions to the gastric mucosa
same,Restenosis %,[1]; 16 mg/Kg by os,100%
same,Restenosis %,[1]; 54 mg/Kg by os,55* %
same,formation of the neointima tunica in the vascular wall / restenosis (in words),[1],small reduction of the restenosis
same,"% of survival, XVIth week",[2]; [4],50%
same,"% of survival, Xth week",[2]; [4],100%
same,reduction % of the presence of oxidized LDL,[3]; 54 mg/kg with the daily diet for 6 weeks,19%
"CC(=O)Oc1ccccc1C(=O)OCc1cccc(CO[N+](=O)[O-])n1.Cl [NO-ASA, 2-(acetyloxy)benzoic acid, 6-(nitrooxymethyl)-2-methyl pyridinyl hydrochloride ester]","% of survival, XVIth week",[2]; [5],100%
same,"% of survival, Xth week",[2]; [5],100%
same,reduction % of the presence of oxidized LDL,[3]; 30 mg/kg with the daily diet for 6 weeks,74%
"O=C(c1ccccc1)c1ccc2n1CCC2C(=O)O (centres unmarked) [Ketorolac, ketorolac]",Gastric damage Score,gastric mucosa; Dose 5 mg/Kg,50
same,Restenosis %,[1]; 5 mg/Kg by os,100%
"O=C(c1ccccc1)c1ccc2n1CCC2C(=O)OCCCCO[N+](=O)[O-] (centres unmarked) [NO Ketorolac, 5-benzoyl-2,3-dihydro-1H-pyrrolizin-1-carboxylic acid (4-nitrooxy)butyl ester]",Gastric damage Score,gastric mucosa; Dose 10 mg/Kg,20
same,gastric toxicity / lesions to the gastric mucosa (in words),"gastric mucosa; summary of Table 1, Aspirin high doses",shows a gastric toxicity
same,Restenosis %,[1]; 10 mg/Kg by os,90%
same,formation of the neointima tunica in the vascular wall / restenosis (in words),[1],not very effective
